Measurements: US7112555B1, “Use of glycuronic polysaccharides and oligosaccharides as phytosanitary products and/or fertiliser” (Centre National de la Recherche Scientifique, priority 1999, dated 2006)

Tests used:
[1] = test system: xyloglucan endotransglycolase; assay: Xyloglucan endotransglycolase (XET) response induced in protoplasts of Rubus; format: cell-based; settings: 50 nM, in 20 minutes
Description: Experimental elicitation conditions. 2.10^6 protoplasts in 1 ml Tris-HCl buffer (pH 4.8) are incubated in the presence, or not, of an elicitor (50 nM) or of a hormone (50 nM): mannuronan oligomer of DP4 or glucuronan oligomer of DP8 or gibberellin GA3. After 20, 40, 60, 100 and 120 minutes of interaction, the protoplasts are recovered by centrifugation, then subjected to enzymatic extraction.
Methodology: measurement of XET activity is carried out in the wells of microtitration plates in 4 stages. Stage 1: immobilization of the acceptor, i.e. the neoglycoprotein XXLG≈BSA. Stage 2: introduction of the reaction medium (XET enzymatic extraction (equivalent to 1 μg of proteins) substrate marked DIG, i.e. XG≈DIG in the Tris-HC1 buffer, pH=7, 25 mM). Stage 3: immunomarking according to the anti-DIG marked peroxydase sequence, anti-peroxydase marked peroxydase. Stage 4: dosage of the peroxydase activity in a citrate-phosphate buffer ([…], pH 5.5).
The peroxydase activity is measured at 492 nm. At least 3 curves of peroxydase activity are traced per experimental condition, and the experiments are carried out using 3 protoplast suspensions. The XET activity is measured by the slope (ΔA 492) of the curve deduced by linear regression from 9 peroxydase kinetics curves.

1,3β-D-glucanase = 1,3β-D-glucanase response induced in the protoplasts of Rubus; format: cell-based, Rubus fruticosus L.; settings: for 1,3-β-D-glucanase activity (% control): elicitor 50 nM, 2.10^6 protoplasts
Description: (§1) Experimental conditions: (1) preparation of protoplasts from cell suspensions of Rubus fruticosus L.; (2) incubation, or not, of n samples of 2.10^6 protoplasts in the presence of “elicitors” (1,4-D-glucuronan polymers and 1,4β-D-galacturonan (400 μg/L) polymers, 1,4β-D-glucuronan oligomers of average DP 8, 1,4β-D-mannuronan oligomers of DP 4, and 1,4β-D-guluronan oligomers of DP 4 (50 nM)); (3) after 20 minutes, the protoplasts whether may be treated or not, are subjected to enzymatic extraction. 2 μg of proteins are used per enzymatic test, and per incubation period. The viability of the protoplasts is maintained at 95% for an experimental period of 6 hours; the Evans blue viability test used verifies the integrity of the plasmalemma.
Methodology: measurement of activity (1,3β-D-glucanase) is based on the calorimetric dosage (ferricyan test) of the substrate-reducing units (reduced hexamer from laminarin) released during hydrolysis. Based on the kinetics developed, curves are traced whose equations make it possible to calculate the speed of the enzymatic reaction. 2 kinetics, at least, are developed per sample, and per experimental “set”. In general, at least 8 kinematics from samples of 2 independent “sets” are developed.
Results: the enzymatic activation elicited in the protoplasts is expressed as a % of the activity in the controls.

1,4β-D-glucanase = 1,4β-D-glucanase response induced in protoplasts of Rubus; format: cell-based, Rubus fruticosus L.; settings: elicitor 50 nM, 20 minutes, 2.10^6 protoplasts
Description: as §1
Experimental elicitation conditions: identical to those reported above.
Methodology: measurement of activity (1,4β-D-glucanase) is based on the calorimetric dosage (ferricyan test) described above of the substrate-reducing units (reduced cellopentaose) released during hydrolysis.

Compound | amplification factor of XET activity versus non-elicited protoplasts [1] | 1,3-β-D-glucanase activity (% control) (1,3β-D-glucanase; 20 minutes) | other results
glucuronan oligomer of DP8 | 1.62 |  | 
1,4β-D-glucuronan polymer |  |  | amplification factor of 1,3-β-D-glucanase activity in plant protoplasts (1,3β-D-glucanase; nanomolar concentration, in 20 minutes): 1.3
oligo 1,4-β-D-mannuronan of DP 4 | 2.12 | 122 | 
oligo 1,4-β-D-guluronan of DP 4 [e] |  | 146 | 1,4β-D-glucanase activity (% control) (1,4β-D-glucanase): 101 % control; effectiveness of 1,3-β-D-glucanase induction among the other products tested (1,3β-D-glucanase; 50 nM, 20 minutes): most effective
C=C1C[C@]23C[C@@]1(O)CC[C@H]2[C@@]12C=C[C@H](O)[C@](C)(C(=O)O1)[C@H]2[C@@H]3C(=O)O [GA3, gibberellin GA3, reference compound] | 1.12 |  | 
